Reference: patent publication US10245249B2, “Pharmaceutical compositions comprising nitroxyl donors” (Cardioxyl Pharmaceuticals, Inc., priority 2013, dated 2019)

test: HNO production determined via N2O quantification (GC headspace analysis); type: physicochemical; settings: PBS, 37° C., 90 minutes incubation
Excerpt: Nitrous oxide (N2O) is produced via the dimerization and dehydration of HNO, and is the most common marker for nitroxyl production (Fukuto et al., Chem. Res. Toxicol. 18:790-801 (2005)). […] Using either nitrous oxide gas or Angeli's salt (AS) as a standard, the relative amounts of N2O released from compounds of the disclosure was examined via gas chromatography (GC) headspace analysis.
A procedure for determining the relative amounts of N2O released from compounds of the disclosure is as follows. GC was performed on an Agilent gas chromatograph equipped with a split injector (10:1 splitting), microelectron capture detector, and a HP-MOLSIV 30 m×0.32 mm×25 μm molecular sieve capillary column. Helium was used as the carrier (4 mL/min) gas and nitrogen was used as the make-up (20 mL/min) gas. The injector oven and the detector oven were kept at 200° C. and 325° C., respectively. All nitrous oxide analyses were performed with the column oven held at a constant temperature of 200° C.
All gas injections were made using an automated headspace analyzer. Vial pressurization was 15 psi. The analyzer's sample oven, sampling valve, and transfer line were kept at 40° C., 45° C., and 50° C., respectively. The oven stabilization, vial pressurization, loop fill, loop equilibration, and sample injection times were 1.00 min., 0.20 min., 0.20 min., 0.05 min., and 1.00 min., respectively.
All determinations used a batch of nominal 20 mL headspace vials with volumes pre-measured for sample uniformity (actual vial volume varied by <2.0% relative standard deviation (n=6)). The average vial volume for the batch was determined from six randomly-selected vials by calculating the weight difference between the capped and sealed empty (i.e., air-filled) vial and the capped and sealed deionized water-filled vial using the known density of deionized water, then averaging. Blanks were prepared by sealing and capping two vials then purging each for 20 seconds with a gentle argon stream. Nitroxyl standards were prepared by sealing and capping four vials then purging each for 1 minute with a gentle stream, from a gas cylinder, of a 3000 ppm […].
CXL-1020 (N-hydroxy-2-methanesulfonylbenzene-1-sulfonamide) “standards” were prepared by, in duplicate, accurately weighing 10±0.5 mg of CXL-1020 and adding it to each 4 mL vial. Using an auto pipette, 1 mL of argon-purged anhydrous DMF (Sigma-Aldrich) was added to each 4 mL vial to form a CXL-1020 stock solution for each sample and the vials were capped and shaken and/or sonicated to insure complete dissolution upon visual observation. Using an auto pipette, 20 mL vials were charged with 5 mL of PBS (purged for at least 30 min. with argon prior to use), purged with argon for at least 20 sec., and sealed with a rubber septum. Using a 50 μL syringe, 50 μL of the CXL-1020 stock solution was injected into each 20 mL vial containing the PBS.
Samples were prepared as follows. In duplicate, 18±1 mg of each sample was accurately weighed into each 4 mL vial. Using an auto pipette, 1 mL of argon-purged anhydrous DMF was added to each 4 mL vial to form a sample stock solution for each sample and the vials were capped and shaken and/or sonicated to insure complete sample dissolution upon visual observation. Using an auto pipette, 20 mL vials were charged with 5 mL of PBS (purged for at least 30 min. with argon prior to use), purged with argon for at least 20 sec., and sealed with a rubber septum. The vials were equilibrated for at least 10 min. at 37° C. in a dry block heater. Thereafter, using a 50 μL syringe, 50 μL of a sample stock solution was injected into each 20 mL vial containing the PBS. The vials were then held at 37° C. in the dry block heater for a time period such that the sum of the time spent in the dry block heater plus the time spent in the automated headspace analyzer oven before sample injection equaled the desired incubation time. […]

SMILES	Relative N2O Yield (90 minutes incubation)
Cc1oc(C)c(S(=O)(=O)NO)c1C(=O)N1CCOCC1 [Compound 77, N-Hydroxy-2,5-dimethyl-4-(morpholine-4-carbonyl)furan-3-sulfonamide]	14%
O=S(=O)(NO)c1ccc(-c2cc(C(F)(F)F)on2)s1 [Compound 36, N-Hydroxy-5-[5-(trifluoromethyl)-1,2-oxazol-3-yl]thiophene-2-sulfonamide]	51%
O=S(=O)(NO)c1ccc(Br)s1 [Compound 45, 5-Bromo-N-hydroxythiophene-2-sulfonamide]	76%
O=S(=O)(NO)c1ccc(-c2cnco2)s1 [Compound 40, N-Hydroxy-5-(1,3-oxazol-5-yl)thiophene-2-sulfonamide]	50%
O=S(=O)(NO)c1coc2ccccc12 [Compound 6, N-Hydroxy-1-benzofuran-3-sulfonamide]	85%
COCc1ccc(Cl)c(S(=O)(=O)NO)c1 [Compound 68, 2-Chloro-N-hydroxy-5-(methoxymethyl)benzene-1-sulfonamide]	86%
O=S(=O)(NO)c1ccc(O)cc1Cl [Compound 62, 2-Chloro-N,4-dihydroxybenzene-1-sulfonamide]	28%
Cc1cc(C)c(C)c(S(=O)(=O)NO)c1C [Compound 53, N-Hydroxy-2,3,5,6-tetramethylbenzene-1-sulfonamide]	70%
O=S(=O)(NO)C1=C(Cl)NC2SC=CN12 (centres unmarked) [Compound 37, 6-Chloro-N-hydroxy-7H,7aH-imidazo[2,1-b][1,3]thiazole-5-sulfonamide]	51%
COC(=O)c1ccc(Cl)c(S(=O)(=O)NO)c1 [Compound 55, Methyl 4-chloro-3-(hydroxysulfamoyl)benzoate]	87%
O=S(=O)(NO)c1sccc1Cl [Compound 48, 3-Chloro-N-hydroxythiophene-2-sulfonamide]	82%
CC(=O)N1CCOc2ccc(S(=O)(=O)NO)cc21 [Compound 74, 4-Acetyl-N-hydroxy-3,4-dihydro-2H-1,4-benzoxazine-6-sulfonamide]	17%
COC(=O)c1cc(C)c(S(=O)(=O)NO)s1 [Compound 42, Methyl 5-(hydroxysulfamoyl)-4-methylthiophene-2-carboxylate]	91%
CC(=O)Nc1ncc(S(=O)(=O)NO)s1 [Compound 76, N-[5-(Hydroxysulfamoyl)-1,3-thiazol-2-yl]acetamide]	76%
CC(C)S(=O)(=O)c1ccccc1S(=O)(=O)NO [Compound 73, N-Hydroxy-2-(propane-2-sulfonyl)benzene-1-sulfonamide]	97%
O=C(c1ccc(Cl)c(S(=O)(=O)NO)c1)N1CCC(=NO)CC1 [Compound 58, 2-Chloro-N-hydroxy-5-[4-(hydroxyimino)piperidine-1-carbonyl]benzene-1-sulfonamide]	92%
COc1ccc(S(=O)(=O)NO)cc1OC [Compound 52, N-Hydroxy-3,4-dimethoxybenzene-1-sulfonamide]	11%
O=S(=O)(NO)c1ccc(S(=O)(=O)c2ccccc2)s1 [Compound 43, 5-(Benzenesulfonyl)-N-hydroxythiophene-2-sulfonamide]	82%
NS(=O)(=O)c1cc(S(=O)(=O)NO)cs1 [Compound 34, 4-N-Hydroxythiophene-2,4-disulfonamide]	100%

SMILES	Relative N2O Yield (90 minutes incubation)
COC(=O)c1ccc(S(=O)(=O)NO)n1C [Compound 75, Methyl 5-(hydroxysulfamoyl)-1-methyl-1H-pyrrole-2-carboxylate]	4%
Cc1cc(S(=O)(=O)NO)c(C)o1 [Compound 70, N-Hydroxy-2,5-dimethylfuran-3-sulfonamide]	6%
CN1CCc2cc(Br)c(S(=O)(=O)NO)cc21 [Compound 67, 5-Bromo-N-hydroxy-1-methyl-2,3-dihydro-1H-indole-6-sulfonamide]	59%
COC(=O)c1ccc(S(=O)(=O)NO)o1 [Compound 69, Methyl 5-(hydroxysulfamoyl)furan-2-carboxylate]	100%
CN1CCOc2cc(S(=O)(=O)NO)ccc21 [Compound 61, N-Hydroxy-4-methyl-3,4-dihydro-2H-1,4-benzoxazine-7-sulfonamide]	11%
CCOC(=O)c1coc(S(=O)(=O)NO)c1 [Compound 78, Ethyl 5-(hydroxysulfamoyl)furan-3-carboxylate]	86%
O=S(=O)(NO)c1ccc(-c2ccon2)s1 [Compound 44, N-Hydroxy-5-(1,2-oxazol-3-yl)thiophene-2-sulfonamide]	81%
CN1CCc2cc(Cl)c(S(=O)(=O)NO)cc21 [Compound 65, 5-Chloro-N-hydroxy-1-methyl-2,3-dihydro-1H-indole-6-sulfonamide]	71%
COCCN(C)C(=O)c1ccc(Cl)c(S(=O)(=O)NO)c1 [Compound 59, 4-Chloro-3-(hydroxysulfamoyl)-N-(2-methoxyethyl)-N-methylbenzamide]	82%
CCS(=O)(=O)c1ccccc1S(=O)(=O)NO [Compound 72, 2-(Ethanesulfonyl)-N-hydroxybenzene-1-sulfonamide]	97%
O=S(=O)(NO)c1ncccc1Br [Compound 33, 3-Bromo-N-hydroxypyridine-2-sulfonamide]	85.5%
O=S(=O)(NO)c1ccc(-c2ccno2)s1 [Compound 38, N-Hydroxy-5-(1,2-oxazol-5-yl)thiophene-2-sulfonamide]	25%
Cc1cc(S(=O)(=O)NO)c(C)s1 [Compound 41, N-Hydroxy-2,5-dimethylthiophene-3-sulfonamide]	13%
O=S(=O)(NO)c1sc(Br)cc1Br [Compound 46, 3,5-Dibromo-N-hydroxythiophene-2-sulfonamide]	95%
O=C(O)c1cc(S(=O)(=O)NO)ccc1O [Compound 60, 2-Hydroxy-5-(hydroxysulfamoyl)benzoic acid]	9%
O=S(=O)(NO)c1cc(O)ccc1Cl [Compound 66, 2-Chloro-N,5-dihydroxybenzene-1-sulfonamide]	80%
CN(C)C(=O)c1cc(S(=O)(=O)NO)c(Cl)cc1O [Compound 64, 4-Chloro-2-hydroxy-5-(hydroxysulfamoyl)-N,N-dimethylbenzamide]	36%
O=S(=O)(NO)c1cc(C(F)(F)F)cc(C(F)(F)F)c1 [Compound 54, N-Hydroxy-3,5-bis(trifluoromethyl)benzene-1-sulfonamide]	2%
O=S(=O)(NO)c1c(Cl)ccc2nonc12 [Compound 50, 5-Chloro-N-hydroxy-2,1,3-benzoxadiazole-4-sulfonamide]	31%
